Reference: patent publication US8101736B2, “Polynucleotides and polypeptide of human KV1.3, compositions comprising same and methods of using same” (GeneGrafts Ltd., priority 2005, dated 2012)
Where two headings read alike, the source gives them in different places.

Columns and labels:
[1] = wild type, from Marom et al. 1995; cited from earlier work
Human dermal fibroblasts = assay: Whole-cell patch clamp of transfected human dermal fibroblasts; assay type: cell-based; conditions: for potassium current amplitude: 7-20 days after nucleoporation, 12 cells per construct; for character of potassium current: FIG. 9 and FIG. 10
Source text: (§1) Voltage clamp assay was used to test the expression and function of the over-expressed channels.
The protocol is using Collagenase type 1 (Worthington Biochemical Corp., Lakewood, N.J., cat. LS004196, lot.X4J7447) for extractions of cells from a tissue. Primary cultures were generated by seeding in flasks with growth Medium: DMEM+HEPES (ADCF) with phenol red (HyClone part no SH3A1534.01, Lot no ANM20173 custom made for biogenics, L.T.D). Medium was supplemented with 10% FBS defined (HyClone; Cat no: SH30072.03; Lot no: APD21173); ITS+1 liquid media supplement (sigma # I-2521); Gentamycin 50 μg ml (Beit ha'emek; cat no#03-035-1) and Amphotericin B 2.5 μg ml (Beit ha'emek; Catalog No. 03-029-1).
Five days prior to transfection, cells were seeded in 150 cm^2 flasks. Medium was changed every 3 days. Cells reached 90% confluence in the day of the transfection.
For expression of the wt and mutation constructs in human dermal fibroblasts, Amaxa Nucleofector (Amaxa biosystem) and Human Dermal Fibroblast (NHDF) Nucleofector kit (Catalog No. VPD-1001) were used. Nucleofection was done according to the protocol of the manufacturer. Cells from passage 1-5 were used. The expression was characterized using fluorescent microscopy and the patch clamp technique. Seven days after nucleofection patch clamp analysis were performed.
(§2) Patch clamp recordings—Voltage-clamp recordings were performed using the whole-cell patch clamp technique. All measurements were done at room temperature. Patch pipettes (2-4 MΩ) were prepared from glass capillary tubes (Jencons Catalog No. 687-055) using a double-stage puller (Narishige pp-830). Currents were recorded with an Axon Instruments amplifier (Axopatch 200), digitized by DigiData 1322A digitizer (Axon instruments). Data was analyzed using pCLAMP software (version 8.0). Bath solution for the whole-cell recordings contained (in mM): 140 NaCl, 3 KCl, 2 CaCl2, 2 MgCl2, 10 Glucose and 10 HEPES (pH 7.4). Pipette solution for the whole-cell recordings (in mM): 140 KCl, 10 Na2 ATP, 1 CaCl2, 1 MgCl2, 10 EGTA and 5 HEPES (pH 7.4). Currents were elicited by 200 ms pulses from holding potential of −80 mV to −90 mv and then to 110 mV in increments of 20 mV.

[2] = tested on: NIH/3T3 fibroblasts cell line; assay: Whole-cell patch clamp of transfected NIH/3T3 cells; assay type: cell-based, Mouse; conditions: stably transfected NIH/3T3 cells; for inactivation character of potassium current: FIG. 7 and FIG. 8; for potassium current amplitude: whole-cell voltage clamp, room temperature
Method: Mouse fibroblasts cell line (NIH/3T3, ATCC ACCESSION NO. CRL-6361):
as §1
Selection was done using Neomycin sulfate (G418) antibiotic (Gibco Catalog No. 11811-031) which was added to the growth medium ([…]). Clones were isolated using cloning ring and cultured into 24 well plate (corning Catalog No. 3524). For expansion, confluent wells were transferred to six well plates and then to 100 mm culture dish (Corning Catalog No. 430167DMEM-complete+G418 10% FCS was thereafter replaced every 72 to 96 hours.
Total cell protein was extracted from the various clones using 300 μl cold RIPA buffer (with supplements; RIPA lysis buffer, 1× Santa Cruz Biotechnology, Catalog No. 24948) and screened by western blot analysis with rabbit anti-Kv1.3 antibody (CHEMICON, Catalog No. AB5178). Colonies that tested western blot positive were then analyzed by voltage clamp.
as §2

[3] = Transition rate of the channel from open to inactivation; conditions: H399W mutant

Molecule	transition rate from open to inactivation [1]	potassium current amplitude (Human dermal fibroblasts)	character of potassium current (Human dermal fibroblasts)	inactivation character of potassium current [2]	potassium current amplitude [2]	transition rate from open to inactivation [3]
wild type Kv1.3: wild type human Kv1.3 voltage-gated potassium channel (SEQ ID NO: 4, GenBank AAC31761, KCNA3)	0.0074	600-2500 pA	typical potassium	slowly inactivated	200-1500 pA	
H399W: human Kv1.3 channel mutated to express tryptophan at position 399 instead of histidine (SEQ ID NO: 2), expressed from pIRES2-EGFP (protein, A recombinant polypeptide having the H399W mutation) MTVVPGDHLLEPEVADGGGAPPQGGCGGGGCDRYEPLPPSLPAAGEQDCCGERVVINISGLRFETQLKTLCQFPETLLGDPKRRMRYFDPLRNEYFFDRNRPSFDAILYYYQSGGRIRRPVNVPIDIFSEEIRFYQLGEEAMEKFREDEGFLREEERPLPRRDFQRQVWLLFEYPESSGPARGIAIVSVLVILISIVIFCLETLPEFRDEKDYPASTSQDSFEAAGNSTSGSRAGASSFSDPFFVVETLCIIWFSFELLVRFFACPSKATFSRNIMNLIDIVAIIPYFITLGTELAERQGNGQQAMSLAILRVIRLVRVFRIFKLSRHSKGLQILGQTLKASMRELGLLIFFLFIGVILFSSAVYFAEADDPTSGFSSIPDAFWWAVVTMTTVGNSYGDMWPVTIGGKIVGSLCAIAGVLTIALPVPVIVSNFNYFYHRETEGEEQSQYMHVGSCQHLSSSAEELRKARSNSTLSKSEYMVIEEGGMNHSAFPQTPFKTGNSTATCTTNN		400-1200 pA	fast inactivated	fast inactivated	150-1800 pA	0.025
